The target of assay [1] is T1, BTK (Homo sapiens, UniProt Q06187). Kind of assay: BTK IC50 (EZ reader kinase assay). The assay is classed as biochemical. Set-up: purchased Carna. The settings on record: ATP 1 mM, BTK 2 nM, 90 minutes at room temperature. On the procedure: Solutions of compounds (test or control) in DMSO were prepared at the desired concentrations, and serially diluted to 11 concentrations by 3-fold dilution in 384pp-plate using TECAN EVO200. 20 nL of stock were transferred to 384 plate using Echo550. DMSO was used as vehicle control.
T1 sequence (Q06187 whole entry): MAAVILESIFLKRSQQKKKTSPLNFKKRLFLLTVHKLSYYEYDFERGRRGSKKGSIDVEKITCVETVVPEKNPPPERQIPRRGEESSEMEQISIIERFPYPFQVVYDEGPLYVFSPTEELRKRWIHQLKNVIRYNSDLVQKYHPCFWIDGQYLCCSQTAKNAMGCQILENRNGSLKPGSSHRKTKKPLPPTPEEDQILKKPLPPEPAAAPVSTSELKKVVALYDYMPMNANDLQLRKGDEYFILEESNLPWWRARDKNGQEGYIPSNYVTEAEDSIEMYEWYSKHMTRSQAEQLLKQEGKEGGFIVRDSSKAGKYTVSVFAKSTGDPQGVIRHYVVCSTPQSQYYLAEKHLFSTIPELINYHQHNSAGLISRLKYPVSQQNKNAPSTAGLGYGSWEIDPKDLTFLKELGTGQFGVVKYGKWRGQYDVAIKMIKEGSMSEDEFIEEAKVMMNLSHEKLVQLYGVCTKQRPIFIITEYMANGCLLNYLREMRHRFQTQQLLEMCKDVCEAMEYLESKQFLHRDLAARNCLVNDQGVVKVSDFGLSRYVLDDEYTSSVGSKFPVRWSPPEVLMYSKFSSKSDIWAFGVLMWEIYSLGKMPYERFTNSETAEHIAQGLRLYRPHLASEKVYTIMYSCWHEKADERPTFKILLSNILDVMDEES
Two separate solutions were prepared—an ATP solution containing MgCl2 (10 mM), Brij-35 (0.01%), DTT (2 mM), BSA (0.05%), EGTA (1 mM), HEPE (pH7.5) (50 mM), FLPeptide (6 uM) and ATP (4 mM); and a BTK solution containing MgCl2 (10 mM), Brij-35 (0.01%), DTT (2 mM), BSA (0.05%), EGTA (1 mM), HEPE (pH7.5) (50 mM) and BTK (2.67 nM). (BTK was obtained from Carna; FLPeptide2 was obtained from PerkinElmer and Ibrutinib was obtained from Selleck.) 5 uL of ATP solution were added to each well, followed by addition of 15 uL of BTK solution to initiate the reaction. (Note the final volume of each well was 20 uL containing MgCl2 (10 mM), Brij-35 (0.01%), DTT (2 mM), BSA (0.05%), EGTA (1 mM), HEPE (pH7.5) (50 mM), FLPeptide (1.5 uM), ATP (1 mM) and BTK (2 nM). The plates were incubated at room temperature for 90 minutes and then stopping buffer added (75 uL, containing 0.5 M EDTA) to terminate the reaction. Samples from each well were analyzed using EZ reader.
The % remaining activity was calculated using read conversion ratio (CR) according to the equation: […]
XLFit (equation 201) was used to calculate IC50's by floating both bottom and top.
BTK IC50 values are provided in Table 5, for the compounds described in Examples 1-13, wherein: • “A” denotes an IC50<1 nM; • “B” denotes an IC50 1-10 nM; and • “C” denotes an IC50>10 nM.

Assay [2] concerns the target T1, BTK. Kind of assay: Assay to determine BTK inactivation rate (active site probe ELISA, human whole blood). The assay is classed as cell-based. Further details: tissue StemExpress; host or cells: human whole blood. The following applies: 37° C., 5-60 minutes, read-out: BTK hWB (Kinact/Ki). On the procedure:
This example employed a BTK active site probe-based assay using a biotinylated covalent inhibitor in human and mouse blood or mouse brain lysate.
Human whole blood was obtained from StemExpress (Stockton, CA) and kept at ambient temperature until the time of the experiment, which was approximately 24 hours after it had been collected. • 1. A 1× lysis buffer was prepared by using 10× lysis buffer (Cell Signaling Technology, #9083S, Danvers, MA), molecular biology grade water, 100× Halt Protease and Phosphatase Inhibitor Cocktail, (ThermoFisher, #78440, Waltham, MA), and BTK active site probe (final: 0.4 μM). This was prepared fresh each experimental day. • 2. Lysis buffer was added in the volume of 30 μL to all wells in a V-bottom plate (Greiner Bio-One, #651261, Monroe, NC) in preparation for timepoint collections. • 3. Compounds were reconstituted to stocks of 10 mM in 100% DMSO and were diluted in 2-fold serial dilutions to generate an 8-point curve in DMSO, with the last point being DMSO only. • 4. A working 10× dilution series was created using 1 μL of the prepared DMSO titration into […] 1×PBS in order to keep the DMSO constant (0.03% DMSO final). • 5. The whole blood was added in the volume of 225 μL per well in a new 96 w v-bottom plate. • 6. For compound treatment, 25 μL of the 10× dilution series in PBS was added to the 225 μL whole blood, followed by briefly pipetting up and down, twice. • 7. The plates were then covered with plastic lids and incubated at 37° C. for 5, 10, 15, 30, 60 minutes. • 8. At each timepoint, 30 μL of compound- or DMSO (vehicle)-treated blood is pulled from each column and added to preloaded collection plates that contained 30 μL of lysis buffer supplemented with BTK active site probe. Samples were then mixed briefly by pipetting up and down, twice. • 9. The plates with collected and lysed samples were shaken and covered with sealing film on a rotator for 60 minutes at room temperature. These samples were used fresh for detection via ELISA, and remaining sample was frozen at −80° C. if a repeat was necessary. Determining Amount of Unoccupied BTK Using ELISA • 1. All streptavidin pre-coated plates (R&D Systems, #CP004, Minneapolis, MN) were brought to room temperature while samples are lysing. • 2. Assay Buffer 1, 1×PBS+0.05% Tween 20+1% BSA was prepared, filtered, and stored at 4° C. when not in use. • 3. Using this Assay Buffer 1, assay buffer+1× protease/phosphatase inhibitor cocktail (PICS) was prepared in the amount needed for all samples. • 4. Assay Buffer+PICS in the volume of 90 μL/well was added to the ELISA plate for blood samples. • 5. Assay Buffer+PICs in the volume of 50 μL/well was added to the ELISA plate for brain samples. • 6. Lysed blood sample (10 μL) was added to the ELISA plate. • 7. Lysed brain sample (50 μL) was added to the ELISA plate. • 8. Samples were loaded into the ELISA plate for a total of 100 μL/well, in duplicate, and remained in the plate, sealed, overnight at 4° C. • 9. The following day, the plate was washed three times with 1× Wash Buffer (1×PBS+0.05% Tween 20) at 250 μL/well using a plate washer. • 10. The plate was inverted to expel all fluid each time and blotted on clean paper towels to remove remaining liquid. • 11. Assay Buffer 2 was prepared (1×PBS+0.05% Tween 20+0.5% BSA) and kept at 4° C. when not in use. • 12. The primary antibody α-BTK (clone D3H5, Cell Signaling Technology #8547S Danvers, MA) was diluted 1:500 in Assay Buffer 2. • 13. Diluted a-BTK antibody was added at 100 μL/well. • 14. The plate was covered with adhesive film and incubated for 90 minutes at room temperature. • 15. The plate was washed three times with 1× Wash Buffer at 250 μL/well using a plate washer. • 16. The plate was inverted to expel all fluid each time and blotted on clean paper towels to remove remaining liquid. • 17. The detection antibody (Jackson Immuno Research, #711-005-152) was diluted 1:2,500 with Assay Buffer 2. • 18. The diluted antibody was added at 100 μL/well. • 19. […]
(In general: In an ELISA, binding on a coated surface is turned into a signal by an enzyme label.)

Structures are written as SMILES.

In assay [1], `CC#CC(=O)N[C@@H]1CCC[C@H](c2c(F)cc(C(N)=O)c3[nH]c(C)c(Cl)c23)C1` (relative stereo) [Compound 6-(cis), 4-((cis)-3-(but-2-ynamido)cyclohexyl)-3-chloro-5-fluoro-2-methyl-1H-indole-7-carboxamide] came in with an IC50 of 1 to 10 nM. Also, in assay [2], the kinact/KI is below 8330 M⁻¹ s⁻¹.

With `CC#CC(=O)N[C@@H]1CCC=C(c2c(F)cc(C(N)=O)c3[nH]c(C)c(Cl)c23)C1` [1A(R), (R)-4-(5-(but-2-ynamido)cyclohex-1-en-1-yl)-3-chloro-5-fluoro-2-methyl-1H-indole-7-carboxamide], in assay [1], the IC50 lay within 1 to 10 nM. Also, the kinact/KI in assay [2] is below 8330 M⁻¹ s⁻¹.

`CC#CC(=O)N[C@H]1CCC=C(c2c(F)cc(C(N)=O)c3[nH]c(C)c(Cl)c23)C1` [1A(S), (S)-4-(5-(but-2-ynamido)cyclohex-1-en-1-yl)-3-chloro-5-fluoro-2-methyl-1H-indole-7-carboxamide] came in with an IC50 in assay [1] below 1 nM. The kinact/KI in assay [2] is below 8330 M⁻¹ s⁻¹.

In assay [1], `CC#CC(=O)N[C@@H]1CCC=C(c2c(F)c(F)c(C(N)=O)c3[nH]c(C)c(Cl)c23)C1` [2A(R), (R)-4-(5-(but-2-ynamido)cyclohex-1-en-1-yl)-3-chloro-5,6-difluoro-2-methyl-1H-indole-7-carboxamide] showed an IC50 of 1 to 10 nM. The kinact/KI in assay [2] was below 8330 M⁻¹ s⁻¹.

`CC#CC(=O)N[C@H]1CCC=C(c2c(F)c(F)c(C(N)=O)c3[nH]c(C)c(Cl)c23)C1` [2A(S), (S)-4-(5-(but-2-ynamido)cyclohex-1-en-1-yl)-3-chloro-5,6-difluoro-2-methyl-1H-indole-7-carboxamide] had an IC50 in assay [1] below 1 nM. Besides, the kinact/KI in assay [2] is above 16700 M⁻¹ s⁻¹.

As for `CC#CC(=O)N[C@H]1CCC=C(c2c(F)cc(C(N)=O)c3[nH]c(C)c(C)c23)C1` [3A(S), (S)-4-(5-(but-2-ynamido)cyclohex-1-en-1-yl)-5-fluoro-2,3-dimethyl-1H-indole-7-carboxamide], the IC50 in assay [1] is below 1 nM. Moreover, the kinact/KI in assay [2] was above 16700 M⁻¹ s⁻¹.

Turning to `CC#CC(=O)N[C@@H]1C=C(c2c(F)cc(C(N)=O)c3[nH]c(C)c(C)c23)CCC1` [3B(S), (S)-4-(3-(but-2-ynamido)cyclohex-1-en-1-yl)-5-fluoro-2,3-dimethyl-1H-indole-7-carboxamide], the IC50 in assay [1] fell in the range of 1 to 10 nM. For the same compound, the kinact/KI in assay [2] was above 16700 M⁻¹ s⁻¹.

`CC#CC(=O)N[C@@H]1C=C(c2c(F)cc(C(N)=O)c3[nH]c(C)c(Cl)c23)CCC1` [5B(S), (S)-4-(3-(but-2-ynamido)cyclohex-1-en-1-yl)-3-chloro-5-fluoro-2-methyl-1H-indole-7-carboxamide] yielded an IC50 in assay [1] of 1 to 10 nM. In addition, the kinact/KI in assay [2] is below 8330 M⁻¹ s⁻¹.

As to `CC#CC(=O)N[C@H]1CCC[C@@H](c2c(F)cc(C(N)=O)c3[nH]c(C)c(Cl)c23)C1` [6-(1R,3S), 4-((1R,3S)-3-(but-2-ynamido)cyclohexyl)-3-chloro-5-fluoro-2-methyl-1H-indole-7-carboxamide], the IC50 in assay [1] is 1 to 10 nM. The kinact/KI in assay [2] was below 8330 M⁻¹ s⁻¹.

Turning to `CC#CC(=O)N[C@H]1CCC[C@H](c2c(F)cc(C(N)=O)c3[nH]c(C)c(Cl)c23)C1` [6-(1S,3S), 4-((1S,3S)-3-(but-2-ynamido)cyclohexyl)-3-chloro-5-fluoro-2-methyl-1H-indole-7-carboxamide], the 50% inhibitory concentration (IC50) in assay [1] is 1 to 10 nM. Also, the kinact/KI in assay [2] was 8330 to 16700 M⁻¹ s⁻¹.

For `CC#CC(=O)N[C@H]1CCC[C@H](c2c(F)cc(C(N)=O)c3[nH]c(C)c(C)c23)C1` [10-(1S,3S), 4-((1S,3S)-3-(but-2-ynamido)cyclohexyl)-5-fluoro-2,3-dimethyl-1H-indole-7-carboxamide], the IC50 in assay [1] is 1 to 10 nM. The kinact/KI in assay [2] is below 8330 M⁻¹ s⁻¹.

The compound `CC#CC(=O)N[C@@H]1CCC[C@@H](c2c(F)c(F)c(C(N)=O)c3[nH]c(C)c(Cl)c23)C1` [11-(1R,3R), 4-[(1R,3R)-3-(but-2-ynoylamino)cyclohexyl]-3-chloro-5,6-difluoro-2-methyl-1H-indole-7-carboxamide] gave an IC50 in assay [1] of 1 to 10 nM. Besides, the kinact/KI in assay [2] is below 8330 M⁻¹ s⁻¹.

As to `CC#CC(=O)N[C@H]1CC[C@@H](c2c(F)cc(C(N)=O)c3[nH]c(C)c(C)c23)C1` [12-(1R,3S), 4-((1R,3S)-3-(but-2-ynamido)cyclopentyl)-5-fluoro-2,3-dimethyl-1H-indole-7-carboxamide], the IC50 in assay [1] fell in the range of 1 to 10 nM. For the same compound, in assay [2], the kinact/KI was below 8330 M⁻¹ s⁻¹.

Turning to `CC#CC(=O)N[C@@H]1CCC[C@@H](c2c(F)c(F)c(C(N)=O)c3[nH]c(C)c(C#N)c23)C1` [Compound 7-(1R,3R), 4-((1R,3R)-3-(but-2-ynamido)cyclohexyl)-3-cyano-5,6-difluoro-2-methyl-1H-indole-7-carboxamide], in assay [1], the IC50 was in the range of 1 to 10 nM. Also, the kinact/KI in assay [2] fell in the range of 8330 to 16700 M⁻¹ s⁻¹.

As to `CC#CC(=O)N[C@H]1CCC[C@@H](c2c(F)c(F)c(C(N)=O)c3[nH]c(C)c(C#N)c23)C1` [Compound 7-(1R,3S), 4-((1R,3S)-3-(but-2-ynamido)cyclohexyl)-3-cyano-5,6-difluoro-2-methyl-1H-indole-7-carboxamide], the concentration for half-maximal inhibition (IC50) in assay [1] was 1 to 10 nM. The kinact/KI in assay [2] is below 8330 M⁻¹ s⁻¹.

With `CC#CC(=O)N[C@H]1CCC[C@@H](c2c(F)c(F)c(C(N)=O)c3[nH]c(C)c(Cl)c23)C1` [Compound 11-(1R,3S), 4-((1R,3S)-3-(but-2-ynamido)cyclohexyl)-3-chloro-5,6-difluoro-2-methyl-1H-indole-7-carboxamide], the IC50 in assay [1] fell in the range of 1 to 10 nM. In assay [2], the kinact/KI is below 8330 M⁻¹ s⁻¹.

For `CC#CC(=O)N[C@@H]1CC[C@@H](c2c(F)cc(C(N)=O)c3[nH]c(C)c(C)c23)C1` [Compound 13-(1R,3R), 4-((1R,3R)-3-(but-2-ynamido)cyclopentyl)-5-fluoro-2,3-dimethyl-1H-indole-7-carboxamide], the IC50 in assay [1] was 1 to 10 nM. Moreover, in assay [2], the kinact/KI is below 8330 M⁻¹ s⁻¹.

Usually IC50 stands for the midpoint of a concentration-inhibition curve. A high value points to weaker potency in that assay.

For the origin of these results see patent publication US12600698B2, “Kinase inhibitors” (Vidya Therapeutics, Inc., priority 2021, dated 2026).
